Experimental data from patent US10946059B2, “Formulation containing an extract of Alpinia galanga, a process for the preparation thereof, and uses thereof” (priority 2017, dated 2021).

How the values were obtained:
Assay type in all cases: in vivo, human
[1] = test system: healthy young volunteers; test: Attention network test (ANT 1.3.0), mental alertness, Example 2
Description: The subjects were then screened. […] The subjects with body mass index (BMI) between 18.50 and 25.00 kg/m2 and a resting blood pressure≤140/90 mm Hg were considered eligible. To avoid subjects with psychotic disorders such as anxiety, depression, ADD or ADHD, subjects with Generalized Anxiety Disorder Screening (GAD-7) score≥7 & Patient Health Questionnaire-9 (PHQ-9) score≥14 were excluded from the study. Subjects with alertness score (Jin Fan's Attention Network Test, version 1.3.0) of 50±20 milliseconds at screening visit were considered eligible. Concomitant therapy was strictly prohibited in order to exclude any significant effect on the results. All the subjects were instructed thoroughly on the investigation procedures.
Subjects reported to the clinic during the morning hours and testing began at early time of day (8:00-9:00 a.m.) for each visit to avoid influence of daily challenges (related to mental and physical stress) on outcomes and the time of day was matched for all three visits to reduce variability in response due to diurnal pattern. […] Subjects were also instructed to obtain sufficient sleep during the night prior to testing which was confirmed using sleep diary. Upon arrival at clinic, subjects were asked to rest quietly for 15-20 minutes after which vital parameters were measured and a standardized meal of approximately 200 calories was provided to control variations from possible digestion confounds. Baseline data were collected 30 minutes post breakfast followed by administration of IP, wherein one dose of the product was administered to subject by trial coordinator at investigational site.
Post ingestion of IP, data were collected at 1, 3, and 5 hours. No other food or calorie-containing beverages were provided. Subjects were allowed to drink water as desired. Subjects were allowed to relax in an isolated room at a comfortable temperature and free to use the computer, listen to music or read magazines during the clinic stay period. To analyze the effect on IP on sleep architecture, a second dose was supplied in a labeled bottle to be taken before dinner in the night of the same day and subjects were asked to record all the details pertaining to sleep quality and duration in sleep diary. To ensure treatment compliance, product accountability was monitored by clinical research coordinator on the following visit.
The primary efficacy variable was mental alertness. Alertness is defined as achieving and maintaining a state of high sensitivity to incoming stimuli. The Attention network test (ANT) was implemented for this purpose as it provides a behavioral measure of the efficiency of the different components of attention networks separately within a single task. The downloaded JAVA version of ANT 1.3.0 (Fan et al., 2002, 2005) was used to conduct the trial. The subject was seated in a silent and secluded room. All external distractions were avoided and subjects were asked to give complete attention to the task at hand. Mental alertness in ANT was calculated in terms of difference score quantified in milliseconds and calculated by subtracting average double-cue RTs from the no-cue RTs. […]

[2] = test system: subjects (male and female) habituated to average caffeine consumption; test: Attention Network Test (CRSD-ANT), Example 1: mean response time, alertness, orientation, executive attention; details: day 7 after IP, compared to placebo
Description: Only right-handed subjects were included in the study to avoid spatial bias. […] The subjects had to refrain from smoking 24 h before study onset and refrain from alcohol intake throughout the study. Subjects with a history or presence of clinically important cardiac, renal, hepatic, endocrine (including diabetes mellitus), pulmonary, biliary, gastrointestinal, pancreatic, or neurological disorders and uncontrolled hypertension were excluded from the study. For each subject, the study was terminated after data collection on the assessment day. […] The IPs included Cymbopogon flexuosus (LG), water-soluble and water-insoluble extracts of Alpinia galanga (AG1 and AG2 respectively), and water-soluble and water-insoluble extracts of Glycyrrhiza glabra (GG1 and GG2 respectively). All interventions were administered to subjects in the form of identical capsules that had been packed in duly labeled HDPE bottles. […] The subjects were allowed to drink water as desired and allowed to relax in an isolated room at a comfortable temperature and were free to use a computer, listen to music, or read magazines during the clinic stay period. […] To ensure treatment compliance, product accountability was monitored by a clinical research coordinator on the following visit. […] Effects of IPs on different aspects of the attention network, such as alertness, orientation, and executive control, were also assessed by ANT. […]

[3] = test system: healthy young volunteers; test: Psychomotor Vigilance Task (PVT), sustained attention, Example 2; details: mean ± SD
Description: Subjects were derived through multiple sources including a healthy volunteer's database and a consumer group's survey agency. The subjects were then screened. […] The subjects with body mass index (BMI) between 18.50 and 25.00 kg/m2 and a resting blood pressure≤140/90 mm Hg were considered eligible. To avoid subjects with psychotic disorders such as anxiety, depression, ADD or ADHD, subjects with Generalized Anxiety Disorder Screening (GAD-7) score≥7 & Patient Health Questionnaire-9 (PHQ-9) score≥14 were excluded from the study. […] Concomitant therapy was strictly prohibited in order to exclude any significant effect on the results. All the subjects were instructed thoroughly on the investigation procedures. Subjects were randomized and allocated to interventional products in each visit, divided in four treatment arms based on randomization chart [SPSS version 10.0, IBM] and similar trend was followed for subsequent visits. […] All these treatments were administered to subjects in the form of capsules which were identical in appearance and packed in duly labeled HDPE bottles. The blinding codes were secured at the site in tamper-evident sealed envelopes with no access to the investigators. Thus, the double blind nature of the data were ensured and strictly followed. […] Composition details of all these IPs are: Subjects reported to the clinic during the morning hours and testing began at early time of day (8:00-9:00 a.m.) for each visit to avoid influence of daily challenges (related to mental and physical stress) on outcomes and the time of day was matched for all three visits to reduce variability in response due to diurnal pattern. […] Subjects were also instructed to obtain sufficient sleep during the night prior to testing which was confirmed using sleep diary. Upon arrival at clinic, subjects were asked to rest quietly for 15-20 minutes after which vital parameters were measured and a standardized meal of approximately 200 calories was provided to control variations from possible digestion confounds. […] Post ingestion of IP, data were collected at 1, 3, and 5 hours. No other food or calorie-containing beverages were provided. Subjects were allowed to drink water as desired. Subjects were allowed to relax in an isolated room at a comfortable temperature and free to use the computer, listen to music or read magazines during the clinic stay period. […] To ensure treatment compliance, product accountability was monitored by clinical research coordinator on the following visit. […] The mean MRT was calculated in milliseconds, which is the time a subject took to press the response button as soon as each stimulus appeared. […]

In the case of `Cn1c(=O)c2c(ncn2C)n(C)c1=O` [Caffeine, caffeine], the “ANT-Alertness (Mental Alertness) score” value ([1]; 1H: value at 1 hour, PP population, mean ± SD) is reported as 57.0 ± 18.1 ms, the “increase in alertness score from baseline” value ([1]; at one hour) is reported as 8.97 ± 18.20 ms and the “decrease in alertness score from baseline” value ([1]; at three hours) is reported as 1.23 ± 18.60 ms. The “subjects that would exhibit higher alertness than the subjects in the placebo group” value ([1]; from Cohen's d) was 47%, the “effect size in alertness score, Cohen's d” value ([1]; in comparison with placebo) was 0.08 and the alertness [2] was “decrease in alertness compared to the placebo group”. For the same compound, the “PVT-Mean Response Time (Sustained Attention)” value (from here on “PVT-Mean Response Time”) ([3]; 1H: value at 1 hour) was 290.1 ± 51.6 ms, the “PVT-Mean Response Time” value ([3]; 3H: value at 3 hours) was 287.6 ± 43.1 ms and the “PVT-Mean Response Time” value ([3]; 5H: value at 5 hours) was 296.9 ± 51.5 ms. The “PVT-Mean Response Time” value ([3]; BL: baseline value) was 310.4 ± 103.3 ms.
